Test [1] has as its target T1, recombinant human CETP (Homo sapiens, UniProt P11597). As to conditions: in vivo.
Details of test [2]: species or system New Zealand White Rabbits. The conditions noted are these: rabbit, in vivo.
Test [3] deals with T1, recombinant human CETP. As to conditions: in vivo. This is another data set of the same source.
The target of test [4] is T1, recombinant human CETP. The conditions noted are these: in vivo. This is another data set of the same source.
Details of test [5]: species or system New Zealand White Rabbits. The conditions noted are these: rabbit, in vivo. This is another data set of the same source.
Test [6] deals with aortic atherosclerotic lesions. As to the kind of experiment: Measurement of aortic atherosclerotic lesions in rabbits, cholesterol-fed model of atherosclerosis. Format: in vivo, New Zealand White Rabbits. How it is done:
The synthetic vaccine peptide (SEQ ID NO:2) of Example 1 above was injected into New Zealand White Rabbits to test the ability of the vaccine peptide to elicit an immune response against endogenous rabbit CETP and to protect or reduce development of atherosclerosis. Group I contained six rabbits (rb#1-#6), each of which was subjected to a protocol for administration of the vaccine peptide. Control Group II contained six rabbits (rb#7-12) that were vaccinated but not fed a high cholesterol diet. Control Group III contained six rabbits (rb#13-18) that were not vaccinated and not fed a high cholesterol diet. Control Group IV contained six rabbits (rb#19-24) that were not vaccinated but fed a high cholesterol diet. The high cholesterol diet was administered starting four weeks after a final boost with the vaccine and continued for a total of 17 weeks.
On Day 0, peptide (100 μg) was suspended in the RIBI™ adjuvant system (RIBI ImmunoChem Research, Inc., Hamilton, Mont.) according to manufacturer's instructions to a final volume of […], and each rabbit of Group I and II were injected at two intramuscular sites (250 μl per site), subcutaneously at two sites (100 μl per site), and six intradermal sites (50 μl per site). On Day 28, a boost (100 μg of peptide in RIBI™ adjuvant system) was administered as on Day 0. On Day 49, another boost (100 μg of peptide in RIBI™ adjuvant system) was administered as on Day 0. […]
Aortas were removed from all surviving rabbits (four in Groups I and IV, five in Group II, six in Group III) after 17 weeks (Day 196 from primary vaccination) on cholesterol supplemented diet in Groups I and IV and control diet (no cholesterol supplement) in Groups II and III. […] The lesions were measured and the data quantitated using a computer program (The Morphometer, Woods Hole Educational Associated, Woods Hole, Mass.).

Data on 1 sequence can be found in patent publication US6555113B1, “Modulation of cholesteryl ester transfer protein (CETP) activity” (priority 1995, dated 2003).

T1 sequence (P11597 18-493): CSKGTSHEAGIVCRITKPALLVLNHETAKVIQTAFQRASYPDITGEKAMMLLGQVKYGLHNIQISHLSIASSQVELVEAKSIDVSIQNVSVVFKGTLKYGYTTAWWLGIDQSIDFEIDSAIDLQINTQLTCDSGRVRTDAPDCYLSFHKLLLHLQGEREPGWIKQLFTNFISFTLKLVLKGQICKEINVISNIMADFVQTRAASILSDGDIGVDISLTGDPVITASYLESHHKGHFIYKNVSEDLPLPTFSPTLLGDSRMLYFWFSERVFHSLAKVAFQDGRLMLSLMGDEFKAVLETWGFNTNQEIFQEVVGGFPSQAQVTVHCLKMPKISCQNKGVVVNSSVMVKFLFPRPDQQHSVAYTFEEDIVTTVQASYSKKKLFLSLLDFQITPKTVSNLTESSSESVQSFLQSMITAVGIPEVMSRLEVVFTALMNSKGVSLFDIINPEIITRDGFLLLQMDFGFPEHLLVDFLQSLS

Turning to “CQYIKANSKFIGITEFGFPEHLLVDFLQSLS [SEQ ID NO:2]”, on recombinant human CETP [1], the “inhibition of TP2 binding to CETP by plasma” value was “observed in plasma sample from two of the three rabbits”. Also, in test [2], the “increase in HDL-C concentrations compared to prebleed plasma samples” value was in the range of 2 to 5 fold, the “plasma HDL concentrations over time” value was “increasing plasma HDL concentrations over time”, the “ratio of Non-HDL/HDL” value is listed as “generally declined” and the “total cholesterol in plasma samples” value is “no significant difference”. Besides, the “titers of anti-CETP antibody by direct ELISA” value at recombinant human CETP [3] is recorded as “All Group I mice had significant titers”. Besides, the “anti-CETP antibody that competed with Mab TP2 for binding to recombinant human CETP” value on recombinant human CETP [4] is given as “three of the six mice”. Moreover, the “levels of HDL-C compared to pre-vaccination levels” value in test [5] is reported as “showed an increase”. Moreover, in test [6] (Group I (vaccinated, cholesterol-supplemented diet) vs Group IV, 17 weeks on 0.25% cholesterol diet), the “size of atherosclerotic lesions compared to non-vaccinated animals” value was “statistically significant reduction”. In test [6] (Group I vaccinated animals, 17 weeks on cholesterol supplemented diet, Oil Red O staining), the “average total area of the aorta covered by lesions” value came to 19%. Also, in test [6] (animals fed cholesterol supplemented diets, vaccinated vs non-vaccinated), the “reduction of the area of atherosclerotic lesions” value is “greater than 50%”.
